Measured values as given in the NIST ThermoML archive (doi:10.1007/s10765-005-5570-x).

Assay: xn = mol fraction of the nth substance listed
Settings: Liquid

ClCCCl [1,2-dichloroethane] + CCOC(C)=O
Settings | mass density [kg/m3]
288.15 K, 101.33 kPa, x1 = 0.1036 | 936.39
288.15 K, 101.33 kPa, x1 = 0.2054 | 966.98
288.15 K, 101.33 kPa, x1 = 0.3019 | 996.99
288.15 K, 101.33 kPa, x1 = 0.4003 | 1028.99
288.15 K, 101.33 kPa, x1 = 0.4963 | 1061.48
288.15 K, 101.33 kPa, x1 = 0.602 | 1098.83
288.15 K, 101.33 kPa, x1 = 0.682 | 1128.5
288.15 K, 101.33 kPa, x1 = 0.8002 | 1174.96
288.15 K, 101.33 kPa, x1 = 0.9001 | 1216.19
288.15 K, 101.33 kPa, x1 = 1 | 1260.13
298.15 K, 101.33 kPa, x1 = 0.1036 | 924.54
298.15 K, 101.33 kPa, x1 = 0.2054 | 954.82
298.15 K, 101.33 kPa, x1 = 0.3019 | 984.84
298.15 K, 101.33 kPa, x1 = 0.4003 | 1016.64
298.15 K, 101.33 kPa, x1 = 0.4963 | 1048.95
298.15 K, 101.33 kPa, x1 = 0.602 | 1086.09
298.15 K, 101.33 kPa, x1 = 0.682 | 1115.64
298.15 K, 101.33 kPa, x1 = 0.8002 | 1161.78
298.15 K, 101.33 kPa, x1 = 0.9001 | 1202.79
298.15 K, 101.33 kPa, x1 = 1 | 1246.59
298.15 K, 200 kPa, x1 = 0.2995 | 983.88
298.15 K, 200 kPa, x1 = 0.5013 | 1046.97
298.15 K, 200 kPa, x1 = 0.6994 | 1120.18
298.15 K, 500 kPa, x1 = 0.2995 | 984.27
298.15 K, 600 kPa, x1 = 0.5013 | 1047.36
298.15 K, 600 kPa, x1 = 0.6994 | 1120.72
298.15 K, 1100 kPa, x1 = 0.5013 | 1047.97
298.15 K, 1200 kPa, x1 = 0.2995 | 985.01
298.15 K, 1200 kPa, x1 = 0.6994 | 1121.21
298.15 K, 2100 kPa, x1 = 0.5013 | 1049.05
298.15 K, 2100 kPa, x1 = 0.6994 | 1122.19
298.15 K, 2300 kPa, x1 = 0.2995 | 986.02
298.15 K, 2900 kPa, x1 = 0.2995 | 986.78
298.15 K, 3000 kPa, x1 = 0.6994 | 1122.99
298.15 K, 3200 kPa, x1 = 0.5013 | 1050.04
298.15 K, 3900 kPa, x1 = 0.5013 | 1050.82
298.15 K, 4000 kPa, x1 = 0.2995 | 987.78
298.15 K, 4000 kPa, x1 = 0.6994 | 1124.04
298.15 K, 4800 kPa, x1 = 0.5013 | 1051.57
298.15 K, 4800 kPa, x1 = 0.6994 | 1124.91
298.15 K, 5000 kPa, x1 = 0.2995 | 988.82
298.15 K, 5900 kPa, x1 = 0.2995 | 989.64
298.15 K, 6100 kPa, x1 = 0.5013 | 1052.93
298.15 K, 6100 kPa, x1 = 0.6994 | 1126.11
298.15 K, 6900 kPa, x1 = 0.2995 | 990.62
298.15 K, 7000 kPa, x1 = 0.6994 | 1126.84
298.15 K, 7100 kPa, x1 = 0.5013 | 1053.82
298.15 K, 7800 kPa, x1 = 0.2995 | 991.51
298.15 K, 7800 kPa, x1 = 0.5013 | 1054.57
298.15 K, 8000 kPa, x1 = 0.6994 | 1127.94
298.15 K, 8600 kPa, x1 = 0.2995 | 992.31
298.15 K, 8800 kPa, x1 = 0.6994 | 1128.76
298.15 K, 9000 kPa, x1 = 0.5013 | 1055.76
298.15 K, 9800 kPa, x1 = 0.5013 | 1056.47
298.15 K, 9900 kPa, x1 = 0.2995 | 993.71
298.15 K, 9900 kPa, x1 = 0.6994 | 1129.84
298.15 K, 11700 kPa, x1 = 0.2995 | 995.34
298.15 K, 11900 kPa, x1 = 0.5013 | 1058.45
298.15 K, 12000 kPa, x1 = 0.6994 | 1131.77
298.15 K, 13700 kPa, x1 = 0.6994 | 1133.5
298.15 K, 13800 kPa, x1 = 0.2995 | 997.35
298.15 K, 13800 kPa, x1 = 0.5013 | 1060.29
298.15 K, 15600 kPa, x1 = 0.6994 | 1135.23
298.15 K, 15900 kPa, x1 = 0.2995 | 999.26
298.15 K, 15900 kPa, x1 = 0.5013 | 1062.3
298.15 K, 17700 kPa, x1 = 0.6994 | 1137.32
298.15 K, 17900 kPa, x1 = 0.2995 | 1001.14
298.15 K, 18000 kPa, x1 = 0.5013 | 1064.25
298.15 K, 19400 kPa, x1 = 0.2995 | 1002.51
298.15 K, 19600 kPa, x1 = 0.6994 | 1139.1
298.15 K, 19900 kPa, x1 = 0.5013 | 1065.99
308.15 K, 101.33 kPa, x1 = 0.1036 | 911.53
308.15 K, 101.33 kPa, x1 = 0.2054 | 941.7
308.15 K, 101.33 kPa, x1 = 0.3019 | 971.32
308.15 K, 101.33 kPa, x1 = 0.4003 | 1002.93
308.15 K, 101.33 kPa, x1 = 0.4963 | 1035.07
308.15 K, 101.33 kPa, x1 = 0.602 | 1071.98
308.15 K, 101.33 kPa, x1 = 0.682 | 1101.3
308.15 K, 101.33 kPa, x1 = 0.8002 | 1147.08
308.15 K, 101.33 kPa, x1 = 0.9001 | 1187.86
308.15 K, 101.33 kPa, x1 = 1 | 1231.27

ClCCBr [1-bromo-2-chloroethane] + CCOC(C)=O
Settings | mass density [kg/m3]
288.15 K, 101.33 kPa, x1 = 0.108 | 984.97
288.15 K, 101.33 kPa, x1 = 0.1985 | 1051.71
288.15 K, 101.33 kPa, x1 = 0.2997 | 1128.56
288.15 K, 101.33 kPa, x1 = 0.3988 | 1205.99
288.15 K, 101.33 kPa, x1 = 0.5008 | 1288.67
288.15 K, 101.33 kPa, x1 = 0.5477 | 1327.76
288.15 K, 101.33 kPa, x1 = 0.6462 | 1412.26
288.15 K, 101.33 kPa, x1 = 0.7653 | 1518.63
288.15 K, 101.33 kPa, x1 = 0.803 | 1553.45
288.15 K, 101.33 kPa, x1 = 0.905 | 1650.02
288.15 K, 101.33 kPa, x1 = 1 | 1744.36
298.15 K, 101.33 kPa, x1 = 0.108 | 972.55
298.15 K, 101.33 kPa, x1 = 0.1985 | 1039.06
298.15 K, 101.33 kPa, x1 = 0.2997 | 1115.49
298.15 K, 101.33 kPa, x1 = 0.3988 | 1192.41
298.15 K, 101.33 kPa, x1 = 0.5008 | 1274.57
298.15 K, 101.33 kPa, x1 = 0.5477 | 1313.32
298.15 K, 101.33 kPa, x1 = 0.6462 | 1397.28
298.15 K, 101.33 kPa, x1 = 0.7653 | 1503.13
298.15 K, 101.33 kPa, x1 = 0.803 | 1537.71
298.15 K, 101.33 kPa, x1 = 0.905 | 1634.03
298.15 K, 101.33 kPa, x1 = 1 | 1727.88
298.15 K, 200 kPa, x1 = 0.2995 | 1115.91
298.15 K, 200 kPa, x1 = 0.5013 | 1278.27
298.15 K, 200 kPa, x1 = 0.6994 | 1442.43
298.15 K, 500 kPa, x1 = 0.2995 | 1116.35
298.15 K, 600 kPa, x1 = 0.6994 | 1443.12
298.15 K, 700 kPa, x1 = 0.5013 | 1278.85
298.15 K, 1100 kPa, x1 = 0.6994 | 1443.6
298.15 K, 1200 kPa, x1 = 0.2995 | 1117.05
298.15 K, 1200 kPa, x1 = 0.5013 | 1279.48
298.15 K, 2100 kPa, x1 = 0.2995 | 1118.11
298.15 K, 2100 kPa, x1 = 0.5013 | 1280.34
298.15 K, 2100 kPa, x1 = 0.6994 | 1444.65
298.15 K, 2900 kPa, x1 = 0.6994 | 1445.74
298.15 K, 3000 kPa, x1 = 0.2995 | 1119.13
298.15 K, 3000 kPa, x1 = 0.5013 | 1281.5
298.15 K, 4000 kPa, x1 = 0.2995 | 1120.19
298.15 K, 4000 kPa, x1 = 0.5013 | 1282.56
298.15 K, 4100 kPa, x1 = 0.6994 | 1447.07
298.15 K, 5000 kPa, x1 = 0.2995 | 1121.32
298.15 K, 5000 kPa, x1 = 0.5013 | 1283.71
298.15 K, 5100 kPa, x1 = 0.6994 | 1448.15
298.15 K, 5800 kPa, x1 = 0.2995 | 1122.17
298.15 K, 5800 kPa, x1 = 0.6994 | 1448.98
298.15 K, 5900 kPa, x1 = 0.5013 | 1284.8
298.15 K, 7000 kPa, x1 = 0.5013 | 1285.84
298.15 K, 7000 kPa, x1 = 0.6994 | 1450.32
298.15 K, 7100 kPa, x1 = 0.2995 | 1123.21
298.15 K, 7700 kPa, x1 = 0.6994 | 1451.09
298.15 K, 7900 kPa, x1 = 0.2995 | 1124.37
298.15 K, 8000 kPa, x1 = 0.5013 | 1286.92
298.15 K, 8600 kPa, x1 = 0.2995 | 1125.17
298.15 K, 8700 kPa, x1 = 0.5013 | 1287.86
298.15 K, 8800 kPa, x1 = 0.6994 | 1452.5
298.15 K, 10100 kPa, x1 = 0.2995 | 1126.71
298.15 K, 10100 kPa, x1 = 0.5013 | 1289.28
298.15 K, 10300 kPa, x1 = 0.6994 | 1454.22
298.15 K, 11700 kPa, x1 = 0.2995 | 1128.38
298.15 K, 12000 kPa, x1 = 0.5013 | 1291.48
298.15 K, 12000 kPa, x1 = 0.6994 | 1456.29
298.15 K, 13700 kPa, x1 = 0.5013 | 1293.44
298.15 K, 13800 kPa, x1 = 0.2995 | 1130.67
298.15 K, 14000 kPa, x1 = 0.6994 | 1458.57
298.15 K, 15500 kPa, x1 = 0.5013 | 1295.42
298.15 K, 15900 kPa, x1 = 0.2995 | 1132.71
298.15 K, 15900 kPa, x1 = 0.6994 | 1460.86
298.15 K, 17400 kPa, x1 = 0.6994 | 1462.58
298.15 K, 17700 kPa, x1 = 0.2995 | 1134.48
298.15 K, 17900 kPa, x1 = 0.5013 | 1298.2
298.15 K, 19200 kPa, x1 = 0.6994 | 1464.86
298.15 K, 19700 kPa, x1 = 0.2995 | 1136.76
298.15 K, 19800 kPa, x1 = 0.5013 | 1300.25
308.15 K, 101.33 kPa, x1 = 0.108 | 959.03
308.15 K, 101.33 kPa, x1 = 0.1985 | 1024.94
308.15 K, 101.33 kPa, x1 = 0.2997 | 1100.59
308.15 K, 101.33 kPa, x1 = 0.3988 | 1177.02
308.15 K, 101.33 kPa, x1 = 0.5008 | 1258.55
308.15 K, 101.33 kPa, x1 = 0.5477 | 1296.96
308.15 K, 101.33 kPa, x1 = 0.6462 | 1380.36
308.15 K, 101.33 kPa, x1 = 0.7653 | 1485.56
308.15 K, 101.33 kPa, x1 = 0.803 | 1519.81
308.15 K, 101.33 kPa, x1 = 0.905 | 1615.55
308.15 K, 101.33 kPa, x1 = 1 | 1708.86
